From patent US20120015901A1, “METHODS AND PREPARATIONS FOR PROTECTING CRITICALLY ILL PATIENTS” (priority 2009, published 2012)
Where two headings read alike, the source gives them in different places.

Legend:
[1] = test system: wild type yeast (BY4741) and null mutants; assay: Yeast chronological aging, survival plating (clonogenicity); format: cell-based
Experimental: Experiments were carried out in BY4741 (MATa his3Δ1 leu2Δ0 met15Δ0 ura3Δ0) and respective null mutants, obtained from Euroscarf. The double mutant Δiki3Δsas3 was generated according to Gueldener at al. (2002) Nucleic Acids Res. 30, e23 by using gene-specific URA3-knockout cassette, amplified by PCR with pUG72 as template (Lovaas & Carlin (1991) Free Radic Biol Med 11, 455-46.). […] All spe1 double mutant strains were obtained through mating and sporulation of BY4741 Δspe1 with the respective BY4742 ([…]) single mutant strains. Single and double mutant strains were verified for correct gene deletion by PCR and further checked for consistent auxotrophies. […] Strains were grown at 28° C. on SC medium containing 0.17% yeast nitrogen base (Difco), 0.5% (NH4)2SO4 and 30 mg/l of all amino acids (except 80 mg/l histidine and 200 mg/l leucine), 30 mg/l adenine, and 320 mg/l uracil with 2% glucose (SCD). […] To construct NHP6A-EGFP in pUG35-Ura (giving rise to a C-terminally tagged chimeric fusion protein under control of the met25-Promotor) the insert was amplified by PCR using genomic DNA from BY4741 as template and cloned into pUG35 using the EcoRI restriction site. The EGFP-ATG8 construct in pUG36-Ura (N-terminally tagged fusion protein) was similarly generated, using EcoRI and ClaI restriction sites.
In case of experiments with Δspe1 (FIG. 24 A-E), all strains were inoculated to 5·10^4 cells/ml. […] Therefore, for calculation of survival rates in experiments using Δiki3Δsas3, cell numbers of each sample were determined after two pulse of sonication on ice with Sonifier 250 from Benson (Duty Cycle: 35; Output Control: 2.5). Tests for apoptotic (TUNEL and Annexin V staining) and necrotic (PI staining) markers as well as markers for oxidative stress (DHE staining) were performed as described in Dod et al. (1982) Eur J Biochem 121, 401-405). For quantifications using flow cytometry (BD FACSAria), 30,000 cells were evaluated and analyzed with BD FACSDiva software. Spermidine (S4139, Sigma, Austria) and putrescine (P5780, Sigma, Austria; 1 mM final concentration) were added to stationary cultures at day 1 of the aging experiments (24 h after inoculation). 1 M aqueous stock solution of spermidine was stored in one use aliquots at −20° C. for no longer than 1 month. For adjustment of extracellular pH (pHex) to 6 (±0.5), the required amount of sodium hydroxide was added 30 h after inoculation. The pHex was maintained at approximately 6 (±0.5) throughout the aging.

[2] = test system: acute liver injury; settings: cited from earlier work

For `NCCCCN` [putrescine, 1,4-diamino-butane], the “chronological life span of polyamine depleted cells” value [1] is given as “restored”, the “effect on acute liver injury” value ([2]; administered 2, 5 and 8 hours after injection of cadmium chloride) is given as “protective effect” and the “effect on acute liver injury” value ([2]; administered 12, 15 and 18 h after cadmium injection) is given as “did not provide a protective effect”.
